Data taken from paper PMC10662156 (Scientific Reports, 2023).

How the values were obtained:
ALDH2 [1] = molecular target: T1, ALDH2 (Homo sapiens, UniProt P05091); assay: QuantiChrom ALDH inhibitor screening kit, diaphorase/MTT-coupled colorimetric assay ([…] nm), recombinant enzyme; assay type: biochemical
T1 sequence (P05091 18-517): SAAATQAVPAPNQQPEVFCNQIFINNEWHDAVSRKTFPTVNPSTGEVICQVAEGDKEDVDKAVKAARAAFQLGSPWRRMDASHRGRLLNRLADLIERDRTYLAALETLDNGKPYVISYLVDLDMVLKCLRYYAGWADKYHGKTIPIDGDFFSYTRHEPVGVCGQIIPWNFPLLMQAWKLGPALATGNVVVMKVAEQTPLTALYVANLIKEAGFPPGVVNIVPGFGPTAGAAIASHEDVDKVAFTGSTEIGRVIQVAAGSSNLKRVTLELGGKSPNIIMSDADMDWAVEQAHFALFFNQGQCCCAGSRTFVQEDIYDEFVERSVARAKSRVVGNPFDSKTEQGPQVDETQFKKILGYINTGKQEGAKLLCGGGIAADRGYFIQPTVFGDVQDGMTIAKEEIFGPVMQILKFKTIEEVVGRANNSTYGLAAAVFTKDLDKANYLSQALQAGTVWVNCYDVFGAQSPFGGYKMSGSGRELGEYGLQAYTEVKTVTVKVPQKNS

ALDH2 [2] = molecular target: T1, ALDH2; assay: QuantiChrom ALDH inhibitor screening kit, % inhibition at […], recombinant enzyme; assay type: biochemical

| inhibition at 20 µM (ALDH2 [2]) | SMILES | IC50 (ALDH2 [1]) |
| --- | --- | --- |
| – | O=c1c(O)c(-c2ccc(O)c(O)c2)oc2cc(O)cc(O)c12 [compound 2, quercetin] | 26.5 µM |
| 25.8 ± 1.31% | COc1ccc(-c2oc3cc(O)cc(O)c3c(=O)c2O)cc1O [compound 8, tamarixetin] | – |
| – | O=C(O)[C@H]1O[C@@H](Oc2c(-c3ccc(O)c(O)c3)oc3cc(O)cc(O)c3c2=O)[C@H](O)[C@@H](O)[C@@H]1O [compound 9, quercetin-3-glucuronide] | 9.62 µM |
